Here are results for 35 molecules from patent US7872052B2, “Use of heterocyclic compounds as SCCE inhibitors” (Arexis AB, priority 2003, dated 2011).

The target of this assay is T1, Recombinant active human SCCE (Homo sapiens, UniProt P49862).
T1 construct: made in house; host or cells: murine C127 cells transfected with a BPV vector (murine MT promoter)
Put plainly: SCCE Inhibitor Test (chromogenic substrate S-2586, absorbance at 405 nm). It is filed as biochemical. To be noted: for IC50: 10 min preincubation, 1 mM S-2586, 60 min, 37° C, pH 7.2; for remaining activity at 1 µM / remaining activity at 5 µM / remaining activity at 10 µM: 1 h; for remaining activity at 1 µM: 1 μM compound; for remaining activity at 5 µM: 5 μM compound. As to the method: Recombinant active human SCCE was produced essentially as described in WO 95/00651. The cDNA encoding human SCCE was introduced into a BPV vector under the control of the murine MT promoter and expressed in transfected C127 cells. The produced SCCE was purified and activated using immobilized bovine trypsin.
SCCE activity was determined using the chromogenic substrate S-2586 (MeO-Suc-Arg-Pro-Tyr-pNA) (Chromogenix, Mölndal, Sweden) by measurement of the change in absorbance at 405 nm essentially as described in WO 95/00651. Inhibitors were dissolved in DMSO and added to the reaction mixture (10 mM sodium phosphate, pH 7.2, 0.5 M NaCl, 2.5 μg/ml SCCE) at appropriate concentrations followed by incubation for 10 min before the start of the enzymatic reaction by subsequent addition of the substrate S-2586 to a final concentration of 1 mM. The change in absorbance at 405 nm after 60 min was recorded and used as a measure of SCCE activity. The assay temperature was 37° C. […] The IC50 values were used to identify compounds as SCCE inhibitors of the invention.

T1 sequence (P49862 30-253): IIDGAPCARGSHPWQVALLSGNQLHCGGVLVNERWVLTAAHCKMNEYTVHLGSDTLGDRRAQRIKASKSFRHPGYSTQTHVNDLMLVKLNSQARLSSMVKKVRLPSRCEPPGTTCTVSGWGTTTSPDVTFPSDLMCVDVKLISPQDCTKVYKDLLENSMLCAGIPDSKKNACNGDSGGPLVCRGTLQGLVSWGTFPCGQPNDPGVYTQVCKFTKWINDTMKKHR

Take `CCc1ccc(-c2nc3cc(Cl)ccc3c(=O)o2)cc1` [Compound I-12, 7-Chloro-2-(4-ethyl-phenyl)benzo[d][1,3]oxazin-4-one]: the IC50 worked out at 2000 nM, the remaining activity at 1 µM was 33% and the remaining activity at 5 µM turned out to be 15%.
As to `O=c1nc(-c2ccco2)oc2ccccc12` [Compound I-21, 2-Furan-2-yl-benzo[e][1,3]oxazin-4-one], the remaining activity at 1 µM came out at 47% and the remaining activity at 5 µM came out at 16%.
Take `COc1cc2nc(-c3ccccc3F)oc(=O)c2cc1OC` [Compound I-11, 2-(2-Fluoro-phenyl)-6,7-dimethoxy-benzo[d][1,3]oxazin-4-one]: the IC50 came out at 700 nM, the remaining activity at 1 µM stood at 39% and the remaining activity at 5 µM was found to be 8%.
In the case of `COc1cc2nc(-c3ccccc3Cl)oc(=O)c2cc1OC` [Compound I-16, 2-(2-Chloro-phenyl)-6,7-dimethoxy-benzo[d][1,3]oxazin-4-one], the IC50 came to 170 nM and the remaining activity at 1 µM came out at 15%. Moreover, the remaining activity at 10 µM (10 μM compound) turned out to be 3%.
`O=c1oc(-c2cccs2)nc2cc(Cl)ccc12` [Compound I-4, 7-Chloro-2-thiophen-2-yl-benzo[d][1,3]oxazin-4-one]: the IC50 amounted to 250 nM, the remaining activity at 1 µM turned out to be 22% and the remaining activity at 5 µM worked out at 5%.
In the case of `COc1ccccc1-c1nc2sc3c(c2c(=O)o1)CCCC3` [II-16, 2-(2-Methoxy-phenyl)-5,6,7,8-tetrahydro-3-oxa-9-thia-1-aza-fluoren-4-one], the IC50 was 70 nM, the remaining activity at 1 µM was determined as 2.7% and the remaining activity at 5 µM is 0%.
In the case of `O=c1oc(-c2ccncc2)nc2ccccc12` [Compound I-8, 2-Pyridin-4-yl-benzo[d][1,3]oxazin-4-one], the IC50 amounted to 5000 nM. Also, the remaining activity at 10 µM (10 μM compound) worked out at 24%.
Consider `CCc1cc2c(=O)oc(-c3ccc(Br)cc3)nc2s1` [II-9, 2-(4-Bromo-phenyl)-6-ethyl-thieno[2,3-d][1,3]oxazin-4-one], for which the IC50 is 1000 nM, the remaining activity at 1 µM stood at 58% and the remaining activity at 5 µM worked out at 37%.
As for `O=c1oc(-c2ccccc2Cl)nc2sc3c(c12)CCC3` [II-10, 6-(2-Chloro-phenyl)-2,3-dihydro-1H-5-oxa-8-thia-7-aza-cyclopenta[a]indene-4-one], the IC50 was 20 nM, the remaining activity at 1 µM worked out at 10% and the remaining activity at 5 µM is 2%.
With `O=c1oc(-c2ccccc2)nc2sc3c(c12)CCC3` [II-12, 6-Phenyl-2,3-dihydro-1H-5-oxa-8-thia-7-aza-cyclopenta[a]inden-4-one], the IC50 was 200 nM, the remaining activity at 1 µM worked out at 19% and the remaining activity at 5 µM was 16%.
Take `CN(C)c1nc2cc(Cl)cc(Cl)c2c(=O)o1` [Compound I-7]: the IC50 came out at 2000 nM. For the same molecule, the “% SCCE activity” value (10 μM compound) came to 7%.
As to `O=c1oc(-c2cccc3ccccc23)nc2sc3c(c12)CCCC3` [II-18, 2-Naphtalen-1-yl-5,6,7,8-tetrahydro-3-oxa-9-thia-1-aza-fluoren-4-one], the IC50 was 1000 nM, the remaining activity at 1 µM was 38% and the remaining activity at 5 µM was found to be 41%.
As to `O=c1oc(-c2cc([N+](=O)[O-])ccc2Cl)nc2ccccc12` [Compound I-6, 2-(2-Chloro-5-nitro-phenyl)-benzo[d][1,3]oxazin-4-one], the IC50 was found to be 500 nM. Where the note is “10 μM compound”, the remaining activity at 10 µM worked out at 22%.
Consider `CCc1cc2c(=O)oc(-c3ccccc3C)nc2s1` [II-3, 6-Ethyl-2-o-tolyl-thieno[2,3-d][1,3]oxazin-4-one], for which the IC50 is 150 nM, the remaining activity at 1 µM came out at 3% and the remaining activity at 5 µM was determined as 0%.
With `O=c1oc(-c2ccc(F)cc2)nc2ccsc12` [II-8, 2-(4-fluoro-phenyl)-4H-thieno[3,2-d][1,3]oxazin-4-one], the IC50 was found to be 1000 nM. In addition, the remaining activity at 10 µM (10 μM compound) is 10%.
Take `COc1cc2nc(-c3ccc([N+](=O)[O-])cc3Cl)oc(=O)c2cc1OC` [Compound I-5, 2-(2-Chloro-4-nitro-phenyl)-6,7-dimethoxy-benzo[d][1,3]oxazin-4-one]: the IC50 was 500 nM. The remaining activity at 10 µM (10 μM compound) is 9%.
In the case of `O=c1oc(-c2cccs2)nc2sc3c(c12)CCCC3` [II-19, 2-Thiophen-2-yl-5,6,7,8-tetrahydro-3-oxa-9-thia-1-aza-fluoren-4one], the IC50 was 1000 nM, the remaining activity at 1 µM came out at 52% and the remaining activity at 5 µM came out at 41%.
For `CCc1cc2c(=O)oc(-c3ccc(F)cc3)nc2s1` [II-4, 6-Ethyl-2-(4-fluoro-phenyl)-thieno[2,3-d][1,3]oxazin-4-one], the IC50 turned out to be 300 nM, the remaining activity at 1 µM was determined as 15% and the remaining activity at 5 µM came to 8%.
Turning to `O=c1oc(-c2ccncc2)nc2sc3c(c12)CCCCC3` [II-21, 2-Pyridin-4-yl-6,7,8,9-tetrahydro-5H-3-oxa-10-thia-1-aza-benzo[a]azulen-4-one], the IC50 was 2000 nM.
On to `O=c1oc(-c2ccccc2O)nc2ccccc12` [Compound I-10, 2-(2-Hydroxy-phenyl)-benzo[d][1,3]oxazin-4-one], for which the IC50 is 5000 nM, the remaining activity at 1 µM came out at 71% and the remaining activity at 5 µM stood at 47%. Where the note is “10 μM compound”, the remaining activity at 10 µM came out at 32%.
As to `O=c1oc(-c2ccccc2)nc2ccsc12` [II-6, 2-phenyl-4H-thieno[3,2-d][1,3]oxazin-4-one], the IC50 is 1000 nM. Under “10 μM compound”, the remaining activity at 10 µM was determined as 9%.
Take `Cc1sc2nc(-c3ccco3)oc(=O)c2c1C` [II-7, 2-Furan-2-yl-5,6-dimethyl-thieno[2,3-d][1,3]oxazin-4-one]: the IC50 was 1500 nM, the remaining activity at 1 µM was 50% and the remaining activity at 5 µM is 13%.
`O=c1oc(-c2cccs2)nc2sc3c(c12)CCC3` [II-14, 6-Thiophen-2-yl-2,3-dihydro-1H-5-oxo-8-thia-7-aza-cyclopenta[a]inden-4-one]: the IC50 was 300 nM, the remaining activity at 1 µM is 37% and the remaining activity at 5 µM turned out to be 21%.
The like results for `O=c1oc(-c2ccco2)nc2sc3c(c12)CCC3` [II-11, 6-Furan-2-yl-2,3-dihydro-1H-5-oxa-8-thia-7-aza-cyclopenta[a]inden-4-one] were, in that order, 200 nM, 8% and 8%.
For the molecule `O=c1oc(-c2ccccc2Cl)nc2ccsc12` [II-5, 2-(2-chloro-phenyl)-4H-thieno[3,2-d][1,3]oxazin-4-one], the IC50 turned out to be 500 nM. In addition, for the setting “10 μM compound”, the remaining activity at 10 µM was 1%.
As for `O=c1oc(-c2ccc(F)cc2)nc2sc3c(c12)CCC3` [II-13, 6-(4-Fluoro-phenyl)-2,3-dihydro-1H-5-oxa-8-thia-7-aza-cyclopenta[a]inden-4-one], the IC50 came to 300 nM, the remaining activity at 1 µM turned out to be 37% and the remaining activity at 5 µM turned out to be 14%.
Taken in the same sequence, the figures for `CC(=O)Oc1ccc(-c2nc3ccccc3c(=O)o2)cc1` [Compound I-15, Acetic acid 4-(4-oxo-4H-benzo[d][1,3]oxazin-2-yl)-phenyl ester] were 5000 nM, 52% and 22%.
Regarding `O=c1oc(-c2ccccc2F)nc2sc3c(c12)CCCC3` [II-15, 2-(2-Fluoro-phenyl)-5,6,7,8-tetrahydro-3-oxa-9-thia-1-aza-fluoren-4-one], the IC50 came to 70 nM, the remaining activity at 1 µM stood at 7% and the remaining activity at 5 µM was 2.4%.
`O=c1nc(-c2ccccc2Cl)oc2ccccc12` [Compound I-19, 2-(2-Chlorophenyl)-benzo[e][1,3]oxazin-4-one]: the IC50 was 4000 nM, the remaining activity at 1 µM turned out to be 76% and the remaining activity at 5 µM is 44%.
In the case of `CCc1cc2c(=O)oc(-c3ccccc3F)nc2s1` [II-1, 6-Ethyl-2-(2-fluoro-phenyl)-thieno[2,3-d][1,3]oxazin-4-one], the IC50 came to 70 nM, the remaining activity at 1 µM is 0% and the remaining activity at 5 µM came to 0%.
As for `O=c1oc(-c2ccccc2)nc2ccccc12` [Compound I-1, 2-Phenyl-benzo[d][1,3]oxazin-4-one], the IC50 was 2000 nM. The remaining activity at 10 µM (10 μM compound) amounted to 27%.
As to `O=c1nc(-c2cccs2)oc2ccccc12` [Compound I-20, 2-Thiophen-2-yl-benzo[e][1,3]oxazin-4-one], the remaining activity at 1 µM is 54% and the remaining activity at 5 µM stood at 16%.
On to `O=c1oc(-c2cccs2)nc2ccccc12` [Compound I-9, 2-Thiophen-2-yl-benzo[d][1,3]oxazin-4-one], for which the IC50 came out at 5000 nM. The remaining activity at 10 µM (10 μM compound) came out at 23%.
With `COc1cc2nc(-c3ccc(NC(C)=O)cc3)oc(=O)c2cc1OC` [Compound I-14, N-[4-(6,7-Dimethoxy-4-oxo-4H-benzo[d][1,3]oxazin-2-yl)-phenyl]-acetamide], the IC50 came to 5000 nM. For the same molecule, where the note is “10 μM compound”, the remaining activity at 10 µM worked out at 52%.
The like results for `Cc1cc2c(=O)oc(-c3cccc4ccccc34)nc2s1` [II-2, 6-Methyl-2-naphtalen-1-yl-thieno[2,3-d][1,3]oxazin-4-one] were, in that order, 50 nM and 4%.

By IC50 is commonly meant the midpoint of a concentration-inhibition curve. The term remaining activity denotes the share of the control activity or signal that is left under treatment.
